# d = 2'-deoxy (DNA); r = 2'-OH (RNA)
# Key:
# [1] = tested on: 3′ UTRs of the 18 candidate genes in U-2-OS cells; experiment: 3′ UTR luciferase reporter analysis; type: cell-based; settings: 10 nM, 24 hours post-transfection
# Source text: In order to test whether miR-192 is regulating these genes through seed sequence-specific recognition of binding sites within their 3' UTRs, a series of reporter constructs were generated containing the entire natural 3' UTRs of the 18 candidate genes (BCL2, CDC7, CUL5, DLG5, DTL, ERCC3, HOXA10, HRH1, LMNB2, MAD2L1, MCM10, MIS12, MPHOSPH1, PIM1, PRPF38A, […]1, SEPT10 and SMARCB1) inserted downstream of a luciferase open reading frame (SwitchGear Genomics) to create 3' UTR luciferase reporter plasmids. U-2-OS cells were transfected first with 10 nM miR-192 or 10 nM miR-192 mutant, and subsequently transfected 4 to 6 hours later with these 3' UTR reporter plasmids. A renilla luciferase expression plasmid from dual luciferase system (Promega) was used as an internal control. Luciferase activity was measured at 24 hours post-transfection, and quantified relative to renilla luciferase activity.
# HCT116DICER^ex5 cells [2] = experiment: Cell cycle distribution by propidium iodide FACS after miR-192 duplex transfection (untreated, nocodazole or aphidicolin); type: cell-based, human; settings: for % Cells with 2N (G1/S) / % Cells with 4N (G2/M): 10 nM duplex, 66 hours after transfection
# Procedure: At 48 hours post transfection, cells were left untreated, treated with nocodazole (100 ng/mL, Sigma-Aldrich), or treated with aphidicolin (2 μg/mL, Sigma-Aldrich) for an additional 18 hours before harvesting. The cells were then trypsinized, collected, fixed and stained with a propidium iodide solution. BrdU-labeling was performed according to the manufacturer's instructions (BD-Pharmigen). For phospho-histone H3 analysis, cells were fixed and permeabilized with IPF buffer (100 mM PIPES pH 6.8, 10 mM EDTA, 1 mM MgCl2, 0.2% Triton X-100, 4% formaldehyde) and stained with propidium iodide and anti-phospho-histone H3 antibody conjugated to Alexa-488 (Cell Signaling Technology). The cells were analyzed using a FACSCalibur flow cytometer (Beacton Dickinson) and FlowJo software (Tree Star, Inc.).
# [3] = tested on: CDC7, LMNB2, MAD2L1 and CUL5; experiment: Western blot analysis; type: cell-based, human; settings: HCT116DICER^ex5 cells, 10 nM, data not shown
# Procedure: HCT116DICER^ex5 cells were transfected with 10 nM siRNA against luciferase or 10 nM miR-192 or 10 nM miR-192 mutant, and lysates were prepared at 28 hours or 48 hours post-transfection. For immunoblotting, 30 μg of whole cell lysate extracted in a modified RIPA buffer (150 mM NaCl, 50 mM Tris pH 7.4, 1 mM EDTA, 1% NP-40, 0.1% SDS) was used per sample. CDC7, LMNB2, MAD2L1 and CUL5 were detected by Western blot using anti-CDC7 (sc-56275, Santa Cruz Biotechnology Inc.), anti-LMNB2 (MAB3536, Millipore), anti-MAD2L1 (ab55452, Abcam) and anti-CUL5 (Invitrogen) antibodies, and protein levels were compared to the level of β-actin expression as detected by an anti-β-actin antibody (Abcam).
# HCT116DICER^ex5 cells [4] = experiment: Transfection of siRNA pools (G1 or G2 gene set) at suboptimal levels, cell cycle FACS analysis (nocodazole or aphidicolin); type: cell-based, human; settings: 100 nM, 66 hours post transfection
# Procedure: […] At 48 hours post-transfection into HCT116DICER^ex5 cells, the cells were treated with nocodazole for an additional 18 hours prior to FACS analysis.
# […] At 48 hours post-transfection into HCT116DICER^ex5 cells, the cells were treated with aphidicolin for an additional 18 hours prior to FACS analysis.
# HCT116DICER^ex5 cells [5] = experiment: Cell cycle FACS analysis of siRNAs against top G1 and G2 arrest genes (nocodazole or aphidicolin); type: cell-based, human; settings: 100 nM siRNA
# Procedure: Of the 62 genes shown above in TABLE 6, the 10 genes whose targeting by siRNA caused the largest percentage of cells to arrest in G1, listed below in TABLE 7, were transfected into HCT116DICER^ex5 cells in another experiment as follows.
# HCT116DICER^ex5 cells were transfected with […] miR-192 or 100 nM siRNA against luciferase, or 100 nM siRNA (one siRNA duplex of the pool of three) against the putative miR-192 target of interest, as indicated in TABLES 7 and 8. At 48 hours post transfection, cells were treated with nocodazole or aphicicolin for an additional 18 hours prior to FACS analysis. The results for the nocodazole treated cells (% of cells in G1) are provided in TABLE 7, and graphically illustrated in FIG. 3A. The results for the aphidicolin treated cells (% of cells in G2) are provided in TABLE 8 and graphically illustrated in FIG. 3B.
# HCT116DICER^ex5 cells [6] = experiment: Cell cycle FACS screen of pools of three siRNAs per gene (G1 after nocodazole, G2/M after aphidicolin); type: cell-based, human; settings: pools of 3 siRNAs/gene at 100 nM final, FACS 66 hours post-transfection, average of two experiments
# Source text: To identify targets whose modulation influences the cell cycle arrest phenotype observed with miR-192 expression, the 62 candidate genes identified as described in Example 2 and shown in TABLE 3 were silenced individually by transfecting a pool of 3 gene-specific siRNA duplexes per gene (each directed to a different region of the gene) into HCT116DICER^ex5 cells. The siRNA duplex sequences (3 duplexes per gene) used to target each of the 62 genes are shown below in TABLE 5. The siRNA duplex oligonucleotides were obtained from Sigma-Genesys, as described in Linsley, P. S. et al., Mol Cell Biol 27:2240-2252 (2007).
# HCT116DICER^ex5 cells were transiently transfected with pools of three different siRNA duplexes per gene at a 100 nM final concentration using Lipofectamine RNAiMax (Invitrogen), according to the manufacturer's instructions. At 48 hours post transfection, cells were left untreated, treated with nocodazole (100 ng/mL, Sigma-Aldrich), or treated with aphidicolin (2 μg/mL, Sigma-Aldrich) for an additional 18 hours before harvesting. The cells transfected with the siRNA pools were then screened by FACS analysis as described in Example 3 for the percentage of cells arrested in G1 or G2/M as compared to the negative siRNA luciferase control.
# The siRNA pools tested in this screen were ranked according to the percentage of cells arrested in G1 or G2/M following transfection, as compared with a negative control siRNA targeting luciferase. To avoid being misled by possible RNAi off-target effects, the siRNA pools were deconvoluted to identify genes for which at least 2 different siRNA duplexes from the pool caused the cell cycle arrest phenotype (data not shown).
# TABLE 6 summarizes the data obtained 66 hours post-transfection by FACS analysis showing the cell cycle distribution of the HCT116DICER^ex5 cells transfected with siRNA pools of 3 siRNAs/gene. Each pool was analyzed in two separate experiments, and the average percentage of the cells trapped in G1 (following nocodazole treatment), or G2/M (following aphidicolin treatment) are shown in TABLE 6.
# A549 cells = experiment: miRNA and p21 expression by quantitative RT-PCR after adriamycin treatment; type: cell-based
# Procedure: (§1) TOV21G cells and A549 cells were obtained from the American Type Culture Collection (ATCC). TOV21G p53 and A549 p53 matched pair cell lines were created by stably infecting TOV21G and A549 cells with a lentivirus encoding either H1-term or p53 shRNA. Cells were cultured in Dulbecco's Modified Eagles Medium, supplemented with 10% fetal bovine serum, streptomycin, penicillin and L-glutamine.
# (§2) MicroRNA expression was measured in the p53 matched cell lines (p53+/+ or p53−/− sh) either untreated or following treatment with various doses of the DNA damaging agent adriamycin (0, 10, 50 and 200 nM adriamycin). Forty-eight hours post treatment, RNA was harvested and the expression levels of miR-34a, miR-192, miR-215 and p21 were determined by quantitative RT-PCR with Taqman analysis carried out as described in Raymond C. K. et al., RNA 11: 1737-1744 (2005).
# TOV21G cells = experiment: as above; type: cell-based
# Procedure: as §1, §2
compound,measurement,setting,value
"miR-192 mutant: Seed region mutant miR-192 duplex, guide CUGCACUAUGAAUUGACAGCC (SEQ ID NO:8), passenger SEQ ID NO:9 (sense CUGUCAAUUCAUAGUGCUGAU; listed as RNA, chemistry not given here) [reference compound]",regulation of 3′ UTR luciferase reporters of the 18 genes,[1],not
same,% Cells with 2N (G1/S),HCT116DICER^ex5 cells [2]; aphidicolin 2 μg/mL 18 hours,66.5%
same,% Cells with 4N (G2/M),HCT116DICER^ex5 cells [2]; aphidicolin 2 μg/mL 18 hours,16.1%
same,% Cells with 2N (G1/S),HCT116DICER^ex5 cells [2]; nocodazole 100 ng/mL 18 hours,17%
same,% Cells with 4N (G2/M),HCT116DICER^ex5 cells [2]; nocodazole 100 ng/mL 18 hours,66.3%
same,accumulation in the G2/M phase,HCT116DICER^ex5 cells [2]; treated with aphidicolin,did not
same,% Cells with 2N (G1/S),HCT116DICER^ex5 cells [2]; untreated,49.9%
same,% Cells with 4N (G2/M),HCT116DICER^ex5 cells [2]; untreated,30.8%
same,protein level,[3],not
"Luc siRNA: Control siRNA targeting luciferase, SEQ ID NOS: 11/12 (chain 1 UCGAAGUAUUCCGCGUACGTT; chain 2 CGUACGCGGAAUACUUCGATT; sugars from the 5' end r19 d2, backbone not given here) [reference compound]",% G1,HCT116DICER^ex5 cells [4]; after aphidicolin treatment,66.3%
same,% G2,HCT116DICER^ex5 cells [4]; after aphidicolin treatment,15.6%
same,% G1,HCT116DICER^ex5 cells [4]; nocodazole,11.7%
same,% G2,HCT116DICER^ex5 cells [4]; nocodazole,83.8%
same,% Cells in G2,HCT116DICER^ex5 cells [5]; aphidicolin 18 hours from 48 hours post transfection,19.2%
same,% Cells in G1,HCT116DICER^ex5 cells [5]; nocodazole 18 hours from 48 hours post transfection,18.5%
same,"% G2 (Avg), Aphidicholin+",HCT116DICER^ex5 cells [6]; aphidicolin 2 μg/mL 18 h,18.9%
same,"% G1 (Avg), Nocodazole+",HCT116DICER^ex5 cells [6]; nocodazole 100 ng/mL 18 h,13.8%
COc1cccc2c1C(=O)c1c(O)c3c(c(O)c1C2=O)C[C@@](O)(C(=O)CO)C[C@@H]3O[C@H]1C[C@H](N)[C@H](O)[C@H](C)O1 [adriamycin],"miR-192, miR-215 and miR-34a expression","A549 cells; A549 cells, adriamycin 10, 50 or 200 nM, 48 hours post treatment",up-regulation
same,expression of miR-192 and miR-215,"A549 cells; p53 deficient A549 cells, adriamycin 10, 50 or 200 nM",not
same,p21 expression,A549 cells; p53 knockdown A549 cells,lack of p21 induction
same,expression of miR-192 and miR-215,"A549 cells; wild type (p53+/+) A549 cells, adriamycin 10, 50 or 200 nM",upregulated in a dose dependent manner
same,"miR-192, miR-215 and miR-34a expression","TOV21G cells; TOV21G cells, adriamycin 10, 50 or 200 nM, 48 hours post treatment",up-regulation
same,expression of miR-192 and miR-215,"TOV21G cells; p53 deficient TOV21G cells, adriamycin 10, 50 or 200 nM",not
same,p21 expression,TOV21G cells; p53 knockdown TOV21G cells,lack of p21 induction
same,expression of miR-192 and miR-215,"TOV21G cells; wild type (p53+/+) TOV21G cells, adriamycin 10, 50 or 200 nM",upregulated in a dose dependent manner

# Reference: patent publication US20110118337A1, “Method of Using Compositions Comprising MIR-192 and/or MIR-215 for the Treatment of Cancer” (Merck Sharp & Dohme Corp., priority 2008, published 2011)
